# Assay results: patent US9539257B2, “Method of treating cancer” (NOVARTIS AG, priority 2009, dated 2017)
# How the values were obtained:
# [1] = previous reports; cited from earlier work
# Source text for HLA-DQA1*0201: The confirmatory study also offered a means to evaluate the specificity of the lapatanib effect by assessment of the letrozole-only arm in the same trial.
smiles,measurement,setting,value
CC1(C)S[C@@H]2[C@H](NC(=O)[C@H](N)c3ccc(O)cc3)C(=O)N2[C@H]1C(=O)O [Amoxicillin],type of liver injury,[1],cholestatic
Cc1onc(-c2c(F)cccc2Cl)c1C(=O)N[C@@H]1C(=O)N2[C@@H]1SC(C)(C)[C@@H]2C(=O)O [flucloxacillin],type of liver injury,[1],cholestatic
"N#Cc1ccc(C(c2ccc(C#N)cc2)n2cncn2)cc1 [letrozole, 4-[(4-cyanophenyl)-(1,2,4-triazol-1-yl)methyl]benzonitrile]",DQA1*0201 carriage in ALT cases,HLA-DQA1*0201; letrozole-only comparator treatment arm (3/11),27%
same,DQA1*0201 carriage in ALT controls,HLA-DQA1*0201; letrozole-only comparator treatment arm (40/159),25%
same,"cumulative incidence of ALT elevation, DQA1*0201 carriers compared with non-carriers","HLA-DQA1*0201; letrozole-only treated patients, FIG. 3",did not differ
